From patent US20220117938A1, “COMBINATON THERAPY WITH A DON PRODRUG AND AN IMMUNE CHECKPOINT INHIBITOR” (DRACEN PHARMACEUTICALS, INC., priority 2019, published 2022)

System: MC-38 tumors
Test: Anti-tumor efficacy of Compound 1 with and without anti-PD-1 in the subcutaneous MC-38 model (Example 2D)
Type: in vivo, Mus musculus
Details: for MST: endpoint tumor volume 2000 mm^3; for T/C / TGI: day 16
Experimental: Female C57BL/6 mice were inoculated subcutaneously at right flank with MC-38 cells for tumor development. Five days after tumor inoculation, 48 mice with tumor size ranging from 50-100 mm^3 (average tumor size 72 mm^3) were selected and assigned into six groups using stratified randomization with 8 mice per group based upon their tumor volumes. The treatments were started from the day of randomization (defined as D0), Group 1 was treated with Vehicle (Tween 80:Ethanol:Saline—5:5:90 v/v/v), s.c., qd×14, Group 2 was treated with Anti-PD-1 10 mg/kg i.p. q4d×4, Group 3 was treated with Compound 1 0.3 mg/kg s.c. q.d.×14, Group 4 was treated with Compound 1 0.3 mg/kg s.c. q.d.×14+Anti-PD-1 10 mg/kg i.p. q4d×4, Group 5 was treated with Compound 1 1 mg/kg s.c. q.d.×14, Group 6 was treated with Compound 1 1 mg/kg s.c. q.d.×14+Anti-PD-1 10 mg/kg i.p. q4d×4. The tumor sizes were measured three times per week during the treatment. The entire study was terminated on D37 after start of the treatment.
Animal Species: Mus musculus; Strain: […]; Age: 6-8 weeks; Sex: female; Body weight (at treatment start): 18-22 g.
The MC-38 tumor cells were maintained in vitro as a monolayer culture in DMEM medium supplemented with 10% heat inactivated fetal bovine serum and 100 μg/mL penicillin streptomycin at 37° C. in an atmosphere of 5% CO2 in air. The tumor cells were routinely subcultured twice weekly by trypsin-EDTA treatment. The cells growing to a confluency around 70%-80% were harvested and counted for tumor inoculation. The cultured MC-38 were harvested, re-suspended in base medium at a density of 1×10^7 cells/mL with viability >90%. Each mouse was inoculated subcutaneously at the right flank with 1×10^6 cells in 0.1 ml base medium for tumor development.
The treatments were started on day 5 after tumor inoculation when the tumor size reached 50-100 mm^3 (average tumor size 72 mm^3). Each group consisted of 8 tumor bearing mice.
The testing article was administrated at the dosing volume indicated to the mice according to the predetermined regimen as shown Table 2D-1. Testing article formulations were prepared according to standard procedures. Details regarding tumor measurements and endpoints, and statistical analysis are provided in EXAMPLE 3.
Tumor sizes were measured three times a week in two dimensions using a caliper, and the volume expressed in mm^3 using the formula: V=0.5 a×b^2 where a and b are the long and short diameters of the tumor, respectively. The tumor sizes were then used for the calculations of both tumor growth inhibition (TGI) and T/C values.
TGI is calculated for each group using the formula: […]
TVTreatment_DayN is the average tumor volume of a treatment group on a given day, TVTreatment_Day0 is the average tumor volume of the treatment group on the first day of treatment, TVVehicle_DayN is the average tumor volume of the vehicle control group on a given day, and TVVehicle_Day0 is the average tumor volume of the vehicle group on the first day of treatment.
The T/C value (in percent) is an indication of antitumor effectiveness, T/C (%)=RTVTreatment/RTVControl×100% (RTVTreatment: the mean RTV of the treatment group; RTVControl: the mean RTV of the vehicle treated group). RTV (relative tumor volume)=TVDayN/TVDay0. TVDayN and TVDay0 is the tumor volume on day N and Day 0 respectively. T/C (%)≤42% is considered as significant antitumor activity and <10% is considered as highly significant antitumor activity by the National Cancer Institute criteria.
Animal survival curve: When an individual animal reached to the termination endpoint (TV>2000 mm^3), the mouse was euthanized. The time from treatment initiation to the termination was deemed as its survival time. Survival curve was plotted by Kaplan-Meier method. Median survival time (MST) was calculated for each group. Increase of life span (ILS) was calculated according to the following formula: […]
ILS (%)>25% is considered as a biologically significant survival benefit. […]

[1] = Compound 1 0.3 mg/kg qd x 14, s.c.

SMILES: CC(=O)N[C@@H](Cc1c[nH]c2ccccc12)C(=O)N[C@@H](CCC(=O)C=[N+]=[N-])C(=O)OC(C)C [Compound 1, Isopropyl (S)-2-((S)-2-acetamido-3-(1H-indol-3-yl)propanamido)-6-diazo-5-oxohexanoate]
- ILS [1]: 52.6%
- MST [1]: 29 days
- ILS (Compound 1 1 mg/kg qd x 14, sc): 65.8%
- MST (Compound 1 1 mg/kg qd x 14, sc): 31.5 days
- RTV at day 16 (Cpd. 1 0.3 mg/kg qd x 14, s.c.): 2.73 ± 0.37
- RTV at day 16 (Cpd. 1 1 mg/kg qd x 14, sc): 0.40 ± 0.11
- T/C (Cpd. 1 0.3 mg/kg qd x 14, s.c.): 14.06%
- TGI (Cpd. 1 0.3 mg/kg qd x 14, s.c.): 90.53%
- T/C (Cpd. 1 1 mg/kg qd x 14, sc): 2.08%
- TGI (Cpd. 1 1 mg/kg qd x 14, sc): 103.26%
